# According to paper PMC5047057 (Oral oncology, 2016):
# Columns and labels:
# [1] = clinical; design: species or system human; conditions: in vivo; for Tmax / AUC(0-t) / Cmax: human, po; for AUC(0-t): AUC0-24h
# [2] = test system: patients with recurrent/metastatic head and neck squamous cell carcinoma (HNSCC)
# [3] = test system: Rb-positive cell lines; conditions: cited from earlier work
# [4] = test system: Rb-negative tumor xenografts; conditions: cited from earlier work
# [5] = test system: patients with Rb-positive cancers; conditions: cited from earlier work
# [6] = Palbociclib 125 mg (n=6 pts) with weekly cetuximab, all cycles
compound,measurement,setting,value
CC(=O)c1c(C)c2cnc(Nc3ccc(N4CCNCC4)cn3)nc2n(C2CCCC2)c1=O [palbociclib],Tmax,[1]; 100 mg,8 h
same,AUC(0-t),[1]; 100 mg,1480 ng·h/mL
same,Cmax,[1]; 100 mg,70 ng/mL
same,Tmax,"[1]; 100 mg, Tmax",8 h
same,AUC(0-t),[1]; 125 mg,2230 ng·h/mL
same,Cmax,[1]; 125 mg,145 ng/mL
same,Tmax,"[1]; 125 mg, Tmax",8 h
same,"Dose-normalized Cmax and AUC0-24h, 100 vs 125 mg daily oral doses",[1],comparable
same,"Acneiform Rash, Grade 3 (number of patients)",[2]; [6],0
same,"Acneiform Rash, Grades 1-2 (number of patients)",[2]; [6],5
same,"Anemia, Grade 3 (number of patients)",[2]; [6],0
same,"Anemia, Grades 1-2 (number of patients)",[2]; [6],6
same,"Diarrhea, Grade 3 (number of patients)",[2]; [6],0
same,"Diarrhea, Grades 1-2 (number of patients)",[2]; [6],1
same,"Fatigue, Grade 3 (number of patients)",[2]; [6],0
same,"Fatigue, Grades 1-2 (number of patients)",[2]; [6],3
same,"Hypomagnesemia, Grade 3 (number of patients)",[2]; [6],0
same,"Hypomagnesemia, Grades 1-2 (number of patients)",[2]; [6],2
same,"Infusion Reaction, Grade 3 (number of patients)",[2]; [6],0
same,"Infusion Reaction, Grades 1-2 (number of patients)",[2]; [6],1
same,"Nausea, Grade 3 (number of patients)",[2]; [6],0
same,"Nausea, Grades 1-2 (number of patients)",[2]; [6],2
same,"Neutropenia, Grade 3 (number of patients)",[2]; [6],2
same,"Neutropenia, Grades 1-2 (number of patients)",[2]; [6],2
same,"Thrombocytopenia, Grade 3 (number of patients)",[2]; [6],0
same,"Thrombocytopenia, Grades 1-2 (number of patients)",[2]; [6],3
same,"Vomiting, Grade 3 (number of patients)",[2]; [6],0
same,"Vomiting, Grades 1-2 (number of patients)",[2]; [6],1
same,Palbociclib dose recommended for phase II trials,[2]; days 1-21 of a 28 day cycle with standard doses of weekly cetuximab,125 mg/day
same,Intra-patient dose reductions,[2]; in vivo,did not occur
same,Most common AE,[2]; in vivo,Myelosuppression
same,Maximum tolerated dose (MTD),[2]; palbociclib up to 125 mg/day days 1-21 of 28 with standard weekly cetuximab,not reached
same,Anti-proliferative effects,[3],potent anti-proliferative effects
same,Activity in xenografts,[4],no activity
same,Systemic exposure versus dose,[5]; dose range of 25-150 mg,dose proportionality
same,Maximum tolerated dose (MTD),"[5]; once daily, administered for 21 days of each 28 day cycle, monotherapy",125 mg
same,Dose-limiting toxicity (DLT),[5]; palbociclib monotherapy phase I trials,neutropenia
